One block for each compound: values may come before it.
Legend:
[1] = target: T1, DNA repair and recombination protein RAD54-like (Homo sapiens, UniProt Q92698); assay: Inhibition of RAD54 (unknown origin) ATPase activity assessed as generation of reactive oxygen species
T1 sequence (Q92698 whole entry): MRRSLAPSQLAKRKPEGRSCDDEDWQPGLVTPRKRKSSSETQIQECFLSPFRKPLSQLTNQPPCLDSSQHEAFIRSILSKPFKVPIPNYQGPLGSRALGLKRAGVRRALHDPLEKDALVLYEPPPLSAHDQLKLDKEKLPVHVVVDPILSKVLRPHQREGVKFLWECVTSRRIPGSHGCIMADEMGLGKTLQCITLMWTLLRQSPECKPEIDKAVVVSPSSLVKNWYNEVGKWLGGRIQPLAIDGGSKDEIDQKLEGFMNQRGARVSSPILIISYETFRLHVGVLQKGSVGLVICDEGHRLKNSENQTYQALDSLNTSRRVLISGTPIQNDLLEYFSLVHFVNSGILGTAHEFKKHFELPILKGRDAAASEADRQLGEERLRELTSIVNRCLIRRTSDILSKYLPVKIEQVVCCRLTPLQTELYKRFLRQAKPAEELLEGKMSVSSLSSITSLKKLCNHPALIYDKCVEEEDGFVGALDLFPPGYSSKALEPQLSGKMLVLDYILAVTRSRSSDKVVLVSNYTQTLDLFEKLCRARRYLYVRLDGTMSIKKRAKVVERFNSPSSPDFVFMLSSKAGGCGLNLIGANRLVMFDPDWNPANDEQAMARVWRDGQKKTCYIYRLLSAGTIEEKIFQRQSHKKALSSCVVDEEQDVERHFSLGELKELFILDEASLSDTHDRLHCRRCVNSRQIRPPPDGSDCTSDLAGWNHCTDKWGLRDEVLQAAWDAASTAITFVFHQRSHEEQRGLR

[2] = target: T2, DNA repair protein RAD51 homolog 1 (Homo sapiens) (UniProt Q06609); assay: Induction of RAD51 in cisplatin-treated neonatal human skin fibroblast assessed as increase in survival at 7.5 uM relative to untreated control
T2 sequence (whole entry): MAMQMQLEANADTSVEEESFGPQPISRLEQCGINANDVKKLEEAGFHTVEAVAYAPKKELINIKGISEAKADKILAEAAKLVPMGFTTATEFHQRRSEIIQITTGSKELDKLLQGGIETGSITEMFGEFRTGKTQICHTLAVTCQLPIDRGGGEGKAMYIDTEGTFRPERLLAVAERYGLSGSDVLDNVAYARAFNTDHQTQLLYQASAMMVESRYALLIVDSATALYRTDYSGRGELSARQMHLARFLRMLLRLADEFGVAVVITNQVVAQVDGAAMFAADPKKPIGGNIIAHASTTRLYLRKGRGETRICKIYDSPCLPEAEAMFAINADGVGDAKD

[3] = target: Bifunctional 3'-5' exonuclease/ATP-dependent helicase WRN (Homo sapiens, UniProt Q14191); assay: Inhibition of WRN helicase (unknown origin)
[4] = target: T2, DNA repair protein RAD51 homolog 1 (Homo sapiens); assay: Inhibition of RAD51 in human MCF7 cells assessed as reduction in IR-induced RAD51 foci formation at 20 uM; assay type: cell-based
[5] = target: T2, DNA repair protein RAD51 homolog 1 (Homo sapiens); assay: Inhibition of RAD51 in human HeLa cells expressing DR-GFP construct assessed as reduction in […]-induced homologous recombination at 20 uM; assay type: cell-based
[6] = target: DNA repair protein RAD51 homolog 1 (Homo sapiens) (UniProt Q06609); assay: Inhibition of RAD51 (unknown origin) binding to ssDNA

Chain of Bifunctional 3'-5' exonuclease/ATP-dependent helicase WRN (Q14191 whole entry): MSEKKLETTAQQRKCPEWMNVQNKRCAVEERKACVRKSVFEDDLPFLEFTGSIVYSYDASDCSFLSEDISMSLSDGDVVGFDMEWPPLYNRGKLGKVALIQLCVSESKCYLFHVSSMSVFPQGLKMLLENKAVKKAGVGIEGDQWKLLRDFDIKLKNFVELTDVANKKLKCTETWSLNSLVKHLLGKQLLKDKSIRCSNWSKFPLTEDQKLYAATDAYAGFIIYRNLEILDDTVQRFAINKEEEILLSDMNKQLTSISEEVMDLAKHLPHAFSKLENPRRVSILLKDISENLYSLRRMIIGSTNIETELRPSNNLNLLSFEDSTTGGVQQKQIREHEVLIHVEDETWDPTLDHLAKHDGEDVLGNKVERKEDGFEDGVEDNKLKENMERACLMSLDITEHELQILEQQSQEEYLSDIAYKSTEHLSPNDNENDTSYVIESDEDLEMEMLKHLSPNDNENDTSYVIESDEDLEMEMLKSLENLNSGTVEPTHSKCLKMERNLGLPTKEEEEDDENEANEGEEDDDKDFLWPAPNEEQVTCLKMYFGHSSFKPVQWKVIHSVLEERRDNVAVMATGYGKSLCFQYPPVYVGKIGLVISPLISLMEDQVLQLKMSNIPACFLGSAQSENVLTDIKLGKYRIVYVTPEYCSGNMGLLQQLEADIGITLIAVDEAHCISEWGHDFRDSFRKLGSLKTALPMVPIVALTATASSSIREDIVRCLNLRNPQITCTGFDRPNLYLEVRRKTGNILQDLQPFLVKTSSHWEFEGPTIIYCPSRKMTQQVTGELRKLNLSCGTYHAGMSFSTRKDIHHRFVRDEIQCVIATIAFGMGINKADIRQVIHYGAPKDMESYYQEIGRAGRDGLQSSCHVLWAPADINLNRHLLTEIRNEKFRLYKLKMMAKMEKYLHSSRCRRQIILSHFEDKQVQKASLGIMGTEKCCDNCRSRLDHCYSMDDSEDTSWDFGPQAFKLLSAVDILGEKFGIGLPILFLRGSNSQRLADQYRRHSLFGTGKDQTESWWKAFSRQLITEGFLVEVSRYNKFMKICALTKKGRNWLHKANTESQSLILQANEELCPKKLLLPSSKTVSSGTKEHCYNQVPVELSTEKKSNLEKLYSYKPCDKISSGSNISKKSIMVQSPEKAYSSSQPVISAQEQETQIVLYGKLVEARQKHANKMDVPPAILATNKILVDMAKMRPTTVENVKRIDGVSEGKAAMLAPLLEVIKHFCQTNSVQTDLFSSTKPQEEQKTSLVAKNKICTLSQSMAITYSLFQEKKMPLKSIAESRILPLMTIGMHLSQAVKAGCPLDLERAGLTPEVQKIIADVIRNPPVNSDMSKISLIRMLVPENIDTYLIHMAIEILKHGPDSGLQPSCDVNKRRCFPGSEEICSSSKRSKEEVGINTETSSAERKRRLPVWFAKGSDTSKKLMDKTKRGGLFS

EC50 [1]: 16.5 µM
Structure (SMILES): COC1=C(N)C(=O)c2nc(-c3nc(C(=O)O)c(C)c(-c4ccc(OC)c(OC)c4O)c3N)ccc2C1=O [STREPTONIGRIN]

Structure (SMILES): O=C(Nc1ccc(Br)cc1)c1ccc(Br)c(S(=O)(=O)NCc2ccccc2)c1
fold change (FC) [2]: 1.5

IC50 [3]: 5 µM
Structure (SMILES): O=C(Nc1ccc(F)c(C(F)(F)F)c1)Nc1nnc(-c2ccncc2)s1

fold change (FC) [4]: 2 | fold change (FC) [5]: 10
Structure (SMILES): O=S(=O)(Cc1ccccc1)N1C=Cc2ccccc2C1c1c[nH]c2ccccc12 (configuration not stated)

IC50 [3]: 20 µM
Structure (SMILES): CCC(=O)OCN1C(=O)C=CC1=O

EC50 [6]: 44 µM
Structure (SMILES): COc1ccc(C2=C(N3CCOCC3)C(=O)N(c3ccc(Cl)c(Cl)c3)C2=O)cc1

Reference: ChEMBL document CHEMBL3352588, “Targeting the homologous recombination pathway by small molecule modulators” (Bioorg Med Chem Lett, 2014)
